In patent publication US12370235B2, “Synthetic, non-natural antimicrobial peptides inspired by Staphylococcus auricularis delta toxin” (University of Saskatchewan, priority 2021, dated 2025):
Ends that are not written are not given here.

Columns and labels:
C. albicans MYA-2876 = experiment: MIC, YPD broth; type: cell-based, Candida albicans; conditions: Table 8
Description: (§1) MIC determination. MICs were measured using peptides with 95% purity. For bacterial studies, cation-adjusted Mueller Hinton (MH) broth was used as the growth medium whereas Yeast Peptone Dextrose (YPD; 10 g/L yeast extract, 20 g/L peptone, 20 g/L dextrose) was used for Candida spp. and other yeast. Microorganisms were diluted to an optical density of […] in MH or YPD broth and a 180 μl volume was mixed with 20 μl of peptide arrayed as a 2-fold dilution series in a flat-bottom 96-well microtitre plate. A control was performed using 20 μl of sterile water. Plates were incubated as standing cultures overnight at 37° C.
(§2) Determination of minimum inhibitory concentrations. The MICs were measured for bioactive peptides identified from the initial screen. For bacterial studies, cation-adjusted Mueller Hinton (MH) broth was used as the growth medium whereas YPD was used for C. albicans. Bacterial cultures were diluted to a OD value of 6×10^−4 in MH broth and a 180 μl volume was mixed with 20 μl of peptide arrayed as 2-fold dilution series in a 96-well plate. For the positive control, 20 μl of sterile water was used. Plates were incubated as standing cultures overnight at 37° C. The lowest peptide concentration that resulted no observed microbial growth after an overnight treatment was defined as the MIC.

S. aureus ATCC 29213 = experiment: MIC, broth dilution; type: cell-based, Staphylococcus aureus; conditions: Table 5; STIP3 variants, highest concentration 100 μg/mL
Description: as §1, §2

[1] = test system: S. aureus ATCC BAA-41 (MRSA SCCmec type II); experiment: MIC, broth dilution; type: cell-based, Staphylococcus aureus; conditions: Table 5; STIP3 variants, highest concentration 100 μg/mL
Description: as §1, §2

[2] = test system: S. aureus ATCC BAA-42 (MRSA SCCmec type VI); experiment: MIC, broth dilution; type: cell-based, Staphylococcus aureus; conditions: Table 5; STIP3 variants, highest concentration 100 μg/mL
Description: as §1, §2

[3] = test system: S. aureus ATCC 33592 (MRSA SCCmec type III); experiment: MIC, broth dilution; type: cell-based, Staphylococcus aureus; conditions: Table 5; STIP3 variants, highest concentration 100 μg/mL
Description: as §1, §2

[4] = test system: S. aureus ATCC BAA-1683 (MRSA SCCmec type IV); experiment: MIC, broth dilution; type: cell-based, Staphylococcus aureus; conditions: Table 5; STIP3 variants, highest concentration 100 μg/mL
Description: as §1, §2

[5] = test system: S. aureus ATCC BAA-2094 (MRSA SCCmec type V); experiment: MIC, broth dilution; type: cell-based, Staphylococcus aureus; conditions: Table 5; STIP3 variants, highest concentration 100 μg/mL
Description: as §1, §2

[6] = test system: S. aureus ATCC BAA-44 (MRSA SCCmec type I); experiment: MIC, broth dilution; type: cell-based, Staphylococcus aureus; conditions: Table 5; STIP3 variants, highest concentration 100 μg/mL
Description: as §1, §2

[7] = test system: S. aureus ATCC BAA-2313 (MRSA SCCmec type XI); experiment: MIC, broth dilution; type: cell-based, Staphylococcus aureus; conditions: Table 5; STIP3 variants, highest concentration 100 μg/mL
Description: as §1, §2

[8] = test system: Mannheimia haemolytica ATCC 33393; experiment: MIC, broth dilution; type: cell-based; conditions: Table 11; highest concentration 25 μg/mL
Description: as §1, §2
The ability of STIP3 variants to inhibit the growth of Mannheimia haemolytica ATCC 33393 was evaluated. This included an alanine scan of STIP3-1 (FIG. 8 & Table 10) as well as 30 rationally-designed STIPs that were evaluated in the preceding Examples against other pathogens (Table 11). Substitutions at a greater number of sites were tolerated in the context of antimicrobial activity. Moreover, the inclusion of basic natural and unnatural amino acids (e.g. lysine, ornithine, and arginine) at positions 3, 4 and 11 (i.e. X1, X2, and X4 of SEQ ID NO: 32) to afford a more uniformly cationic peptide increased activity against M. haemolytica.

[9] = test system: Saccharomyces cerevisiae AR 400; experiment: MIC, YPD broth, CDC and FDA AR Candida isolate panel; type: cell-based; conditions: Table 9 below the line: only 200 or 100 μg/mL tested; values reported as 100 are ≤100 μg/mL
Description: as §1

[10] = test system: Candida lusitaniae AR 398; experiment: as above; type: cell-based; conditions: Table 9 below the line: only 200 or 100 μg/mL tested; values reported as 100 are ≤100 μg/mL
Description: as §1

[11] = test system: Saccharomyces cerevisiae AR 399; experiment: as above; type: cell-based; conditions: Table 9 below the line: only 200 or 100 μg/mL tested; values reported as 100 are ≤100 μg/mL
Description: as §1

[12] = test system: Candida haemulonii AR 393; experiment: as above; type: cell-based; conditions: Table 9 below the line: only 200 or 100 μg/mL tested; values reported as 100 are ≤100 μg/mL
Description: as §1

[13] = test system: Candida duobushaemulonii AR 391; experiment: as above; type: cell-based; conditions: Table 9 below the line: only 200 or 100 μg/mL tested; values reported as 100 are ≤100 μg/mL
Description: as §1

Kodamae ohmeri AR 396 = experiment: as above; type: cell-based; conditions: Table 9 below the line: only 200 or 100 μg/mL tested; values reported as 100 are ≤100 μg/mL
Description: as §1

Candida krusei AR 397 = experiment: as above; type: cell-based; conditions: Table 9 below the line: only 200 or 100 μg/mL tested; values reported as 100 are ≤100 μg/mL
Description: as §1

[14] = test system: Candida duobushaemulonii AR 392; experiment: as above; type: cell-based; conditions: Table 9 below the line: only 200 or 100 μg/mL tested; values reported as 100 are ≤100 μg/mL
Description: as §1

[15] = test system: Candida duobushaemulonii AR 394; experiment: as above; type: cell-based; conditions: Table 9 below the line: only 200 or 100 μg/mL tested; values reported as 100 are ≤100 μg/mL
Description: as §1

[16] = test system: Candida haemulonii AR 395; experiment: as above; type: cell-based; conditions: Table 9 below the line: only 200 or 100 μg/mL tested; values reported as 100 are ≤100 μg/mL
Description: as §1

| Sequence | MIC C. albicans MYA-2876 (C. albicans MYA-2876) | MIC S. aureus ATCC 29213 (S. aureus ATCC 29213) | MIC S. aureus ATCC BAA 41 (II) [1] | MIC S. aureus ATCC BAA 42 (VI) [2] | MIC S. aureus ATCC 33592 (III) [3] | MIC S. aureus ATCC BAA 1683 (IV) [4] | MIC S. aureus ATCC BAA 2094 (V) [5] | MIC S. aureus ATCC BAA 44 (I) [6] | MIC S. aureus ATCC BAA 2313 (XI) [7] | MIC (μg/mL) M. haemolytica [8] | MIC (μg/mL) Saccharomyces cerevisiae AR 400 [9] [µg/mL] | MIC (μg/mL) Candida lusitaniae AR 398 [10] [µg/mL] | MIC (μg/mL) Saccharomyces cerevisiae AR 399 [11] [µg/mL] | MIC (μg/mL) Candida haemulonii AR 393 [12] | MIC (μg/mL) Candida duobushaemulonii AR 391 [13] | MIC (μg/mL) Kodamae ohmeri AR 396 (Kodamae ohmeri AR 396) | MIC (μg/mL) Candida krusei AR 397 (Candida krusei AR 397) | MIC (μg/mL) Candida duobushaemulonii AR 392 [14] | MIC (μg/mL) Candida duobushaemulonii AR 394 [15] | MIC (μg/mL) Candida haemulonii AR 395 [16] |
| --- | --- | --- | --- | --- | --- | --- | --- | --- | --- | --- | --- | --- | --- | --- | --- | --- | --- | --- | --- | --- |
| TVGGLVKWILAAVKKFA [STIP3-12, TVGGLVKWILAAVKKFA] | 100 µg/mL | 25 µg/mL | 25 µg/mL | 25 µg/mL | 25 µg/mL | 25 µg/mL | 50 µg/mL | 25 µg/mL | 25 µg/mL | 25 µg/mL | ≤ 100 | ≤ 100 | ≤ 100 | > (values below the line were determined using two concentrations of peptide 200 or 100 μg/mL) | > (values below the line were determined using two concentrations of peptide 200 or 100 μg/mL) | > (values below the line were determined using two concentrations of peptide 200 or 100 μg/mL) | ≤ 100 µg/mL | > (values below the line were determined using two concentrations of peptide 200 or 100 μg/mL) | > (values below the line were determined using two concentrations of peptide 200 or 100 μg/mL) | > (values below the line were determined using two concentrations of peptide 200 or 100 μg/mL) |
| TVDGLVKWILATVKKFA [STIP3-17, TVDGLVKWILATVKKFA] | 12.5 µg/mL | > (no inhibition was observed at the highest concentration of peptide tested: 100 μg/mL for the STIP3 variants) | > (no inhibition was observed at the highest concentration of peptide tested: 100 μg/mL for the STIP3 variants) | > (no inhibition was observed at the highest concentration of peptide tested: 100 μg/mL for the STIP3 variants) | > (no inhibition was observed at the highest concentration of peptide tested: 100 μg/mL for the STIP3 variants) | > (no inhibition was observed at the highest concentration of peptide tested: 100 μg/mL for the STIP3 variants) | > (no inhibition was observed at the highest concentration of peptide tested: 100 μg/mL for the STIP3 variants) | > (no inhibition was observed at the highest concentration of peptide tested: 100 μg/mL for the STIP3 variants) | > (no inhibition was observed at the highest concentration of peptide tested: 100 μg/mL for the STIP3 variants) | > (> symbol indicates that no inhibition was observed at the highest concentration of peptide tested: 25 μg/mL) | ≤ 100 | ≤ 100 | ≤ 100 | > (values below the line were determined using two concentrations of peptide 200 or 100 μg/mL) | > (values below the line were determined using two concentrations of peptide 200 or 100 μg/mL) | > (values below the line were determined using two concentrations of peptide 200 or 100 μg/mL) | ≤ 100 µg/mL | > (values below the line were determined using two concentrations of peptide 200 or 100 μg/mL) | > (values below the line were determined using two concentrations of peptide 200 or 100 μg/mL) | > (values below the line were determined using two concentrations of peptide 200 or 100 μg/mL) |
| TVRALVRWILRTVARFA [STIP3-23, TVRALVRWILRTVARFA] | > (> symbol indicates that no inhibition was observed at the highest concentration of peptide tested: 100 μg/mL) | 25 µg/mL | 6.25 µg/mL | 50 µg/mL | 25 µg/mL | 25 µg/mL | 50 µg/mL | 25 µg/mL | 25 µg/mL | 12.5 µg/mL | ≤ 100 | ≤ 100 | ≤ 100 | > (values below the line were determined using two concentrations of peptide 200 or 100 μg/mL) | > (values below the line were determined using two concentrations of peptide 200 or 100 μg/mL) | > (values below the line were determined using two concentrations of peptide 200 or 100 μg/mL) | > (values below the line were determined using two concentrations of peptide 200 or 100 μg/mL) | > (values below the line were determined using two concentrations of peptide 200 or 100 μg/mL) | > (values below the line were determined using two concentrations of peptide 200 or 100 μg/mL) | > (values below the line were determined using two concentrations of peptide 200 or 100 μg/mL) |
